The text below walks through data of paper PMC5986654, “Combined HAT/EZH2 modulation leads to cancer-selective cell death” (Oncotarget, 2018).

One may read the IC50 as the point on the concentration scale where inhibition reaches its midpoint. In general, inhibition refers to the share of the control response that was lost under treatment. The term half-life denotes how long it takes for the measured level to halve.

Data set [1] deals with T1, CYP2C9 (Homo sapiens, UniProt P11712).
T1 construct: from tissue; host or cells: human liver microsomes
T1 sequence (P11712 whole entry): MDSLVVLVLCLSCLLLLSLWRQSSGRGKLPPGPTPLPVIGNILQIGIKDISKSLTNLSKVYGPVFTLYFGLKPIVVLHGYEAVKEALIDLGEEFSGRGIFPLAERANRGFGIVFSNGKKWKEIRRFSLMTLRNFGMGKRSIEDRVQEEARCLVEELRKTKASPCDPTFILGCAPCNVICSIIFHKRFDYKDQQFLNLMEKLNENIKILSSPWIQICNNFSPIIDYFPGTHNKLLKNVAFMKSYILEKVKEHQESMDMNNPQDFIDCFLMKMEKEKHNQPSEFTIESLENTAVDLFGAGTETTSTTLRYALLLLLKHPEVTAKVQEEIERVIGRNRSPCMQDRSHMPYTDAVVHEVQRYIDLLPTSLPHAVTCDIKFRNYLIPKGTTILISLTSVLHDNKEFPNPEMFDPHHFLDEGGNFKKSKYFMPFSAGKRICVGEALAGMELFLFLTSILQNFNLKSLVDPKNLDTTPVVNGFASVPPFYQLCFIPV
The data set can be described thus: Cytochrome P450 inhibition, CYP2C9. Conditions: human liver microsomes, probe tolbutamide. The class given is in vitro ADME. As for the experimental part: This provided a dose of 2 mg free base material/kg when Cytochrome p450 inhibition (5 isoform iC50 administered iv in a 5 mL/kg dosing volume. determination) mouse terminal ip pK study ADME-Tox Cytochrome P450 inhibition of Compound MC2884 was given ip at a dose of 2 mg/kg MC2884 using human liver microsomes as an estimation to a group of 24 normally fed male CD1 mice in a 10 mL/ of in vitro metabolism. kg injection volume. Terminal blood samples (> 230 μL) MC2884 (0.1 μM–25 μM) was incubated with were taken under CO2 from groups of 3 mice at each of 8 human liver microsomes and NADPH in the presence time-points post dose (0.083, 0.25, 0.5, 1, 2, 4, 8 and 24 h) of a cytochrome P450 isoform-specific probe substrate. and placed into heparinized tubes. […]
All samples were stored at −20° C measuring the formation of a fluorescent metabolite. […]
Cyp2C19 inhibition (0.1 mg/mL) and NADPH (1 mM) in the presence of the probe substrate midazolam (2.5 μM) for 5 min at Six test compound samples at concentrations 37° C. […] For the CYP1A incubations, the reactions microsomes (0.5 mg/mL) and NADPH (1 mM) in the were terminated by methanol, and the formation of the presence of the probe substrate mephenytoin (25 μM) metabolite, resorufin, was monitored by fluorescence for 60 min at 37° C. […]
A general note: Liver microsomes are vesicles of endoplasmic reticulum, rich in cytochrome P450 enzymes.

Data set [2] deals with T2, EZH2 (Homo sapiens, UniProt Q15910).
T2 construct: purchased BPS Biosciences
T2 sequence (Q15910 whole entry): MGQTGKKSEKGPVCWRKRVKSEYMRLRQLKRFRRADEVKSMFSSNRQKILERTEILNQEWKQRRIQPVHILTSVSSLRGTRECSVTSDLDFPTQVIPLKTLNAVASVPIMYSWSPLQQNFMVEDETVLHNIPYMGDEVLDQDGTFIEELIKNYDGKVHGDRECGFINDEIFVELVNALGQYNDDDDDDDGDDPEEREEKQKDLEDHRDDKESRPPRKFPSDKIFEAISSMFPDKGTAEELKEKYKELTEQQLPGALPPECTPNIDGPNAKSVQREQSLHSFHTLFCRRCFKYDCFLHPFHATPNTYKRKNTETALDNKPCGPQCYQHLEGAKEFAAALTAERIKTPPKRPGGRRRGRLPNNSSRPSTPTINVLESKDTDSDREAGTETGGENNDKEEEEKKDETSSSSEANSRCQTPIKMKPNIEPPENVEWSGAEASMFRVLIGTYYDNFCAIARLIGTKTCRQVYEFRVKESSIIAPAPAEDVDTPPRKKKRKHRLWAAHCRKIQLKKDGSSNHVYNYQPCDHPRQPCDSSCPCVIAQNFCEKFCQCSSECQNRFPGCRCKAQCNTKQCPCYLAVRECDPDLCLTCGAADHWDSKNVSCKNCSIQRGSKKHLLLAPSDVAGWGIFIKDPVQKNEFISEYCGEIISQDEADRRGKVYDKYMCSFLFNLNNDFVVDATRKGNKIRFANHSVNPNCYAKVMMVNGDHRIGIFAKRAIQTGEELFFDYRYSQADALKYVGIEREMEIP
T2 sequence (O75530 whole entry partner): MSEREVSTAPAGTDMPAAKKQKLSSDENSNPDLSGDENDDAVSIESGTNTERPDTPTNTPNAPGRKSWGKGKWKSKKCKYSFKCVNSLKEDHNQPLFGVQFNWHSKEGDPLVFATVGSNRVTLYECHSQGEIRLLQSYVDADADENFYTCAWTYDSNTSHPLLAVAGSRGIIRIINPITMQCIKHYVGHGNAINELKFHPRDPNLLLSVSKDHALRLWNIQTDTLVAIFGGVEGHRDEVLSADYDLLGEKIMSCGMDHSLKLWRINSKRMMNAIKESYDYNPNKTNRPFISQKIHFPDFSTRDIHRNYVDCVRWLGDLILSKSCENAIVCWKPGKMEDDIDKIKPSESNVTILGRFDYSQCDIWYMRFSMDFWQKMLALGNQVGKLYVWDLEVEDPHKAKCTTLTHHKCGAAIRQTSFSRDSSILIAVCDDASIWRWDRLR
T2 sequence (Q15022 whole entry partner): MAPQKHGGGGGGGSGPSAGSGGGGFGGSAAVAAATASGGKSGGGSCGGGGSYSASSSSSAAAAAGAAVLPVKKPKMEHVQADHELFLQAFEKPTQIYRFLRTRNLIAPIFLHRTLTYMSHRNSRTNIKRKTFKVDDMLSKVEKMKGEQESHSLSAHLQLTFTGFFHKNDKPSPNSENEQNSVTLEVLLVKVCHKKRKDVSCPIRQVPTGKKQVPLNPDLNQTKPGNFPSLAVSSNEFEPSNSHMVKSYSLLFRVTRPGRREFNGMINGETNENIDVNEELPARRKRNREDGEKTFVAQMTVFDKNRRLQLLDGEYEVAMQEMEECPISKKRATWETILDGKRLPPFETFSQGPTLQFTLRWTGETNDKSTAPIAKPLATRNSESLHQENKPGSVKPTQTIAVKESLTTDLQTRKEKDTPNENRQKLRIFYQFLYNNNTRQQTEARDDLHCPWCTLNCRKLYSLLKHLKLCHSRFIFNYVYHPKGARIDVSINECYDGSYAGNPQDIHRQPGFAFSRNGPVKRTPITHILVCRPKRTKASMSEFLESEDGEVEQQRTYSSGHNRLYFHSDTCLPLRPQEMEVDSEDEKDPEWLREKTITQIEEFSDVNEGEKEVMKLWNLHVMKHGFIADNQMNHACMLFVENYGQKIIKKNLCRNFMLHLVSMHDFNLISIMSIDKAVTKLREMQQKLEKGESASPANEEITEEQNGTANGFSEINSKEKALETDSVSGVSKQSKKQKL
T2 sequence (Q09028 whole entry partner): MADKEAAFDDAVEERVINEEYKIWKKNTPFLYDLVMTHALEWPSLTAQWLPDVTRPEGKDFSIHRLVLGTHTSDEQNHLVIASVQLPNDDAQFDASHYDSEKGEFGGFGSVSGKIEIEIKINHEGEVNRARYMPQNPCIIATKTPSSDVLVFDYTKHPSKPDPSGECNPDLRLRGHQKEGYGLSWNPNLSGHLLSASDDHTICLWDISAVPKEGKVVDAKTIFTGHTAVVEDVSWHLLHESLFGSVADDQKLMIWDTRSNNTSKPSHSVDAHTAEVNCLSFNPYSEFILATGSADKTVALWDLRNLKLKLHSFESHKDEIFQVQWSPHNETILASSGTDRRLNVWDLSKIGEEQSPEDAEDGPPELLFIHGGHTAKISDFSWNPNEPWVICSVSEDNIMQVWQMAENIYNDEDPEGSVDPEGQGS
T2 sequence (Q6ZN18 whole entry partner): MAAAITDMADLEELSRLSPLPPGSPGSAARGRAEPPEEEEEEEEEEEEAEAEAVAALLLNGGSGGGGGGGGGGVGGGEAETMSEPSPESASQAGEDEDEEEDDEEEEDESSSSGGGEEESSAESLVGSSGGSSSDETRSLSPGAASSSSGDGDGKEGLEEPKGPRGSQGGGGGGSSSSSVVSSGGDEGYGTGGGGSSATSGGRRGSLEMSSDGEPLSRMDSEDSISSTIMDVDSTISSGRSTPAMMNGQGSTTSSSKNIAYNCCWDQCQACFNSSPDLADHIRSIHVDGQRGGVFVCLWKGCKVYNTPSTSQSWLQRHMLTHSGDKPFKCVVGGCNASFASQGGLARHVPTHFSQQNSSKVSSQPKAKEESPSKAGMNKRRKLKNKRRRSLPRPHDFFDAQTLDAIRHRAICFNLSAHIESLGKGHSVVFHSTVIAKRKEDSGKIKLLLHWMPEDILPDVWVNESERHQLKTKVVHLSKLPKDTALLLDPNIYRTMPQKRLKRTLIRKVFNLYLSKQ
The data set is described as follows: EZH2 methyltransferase in vitro assay. The class given is biochemical. As for the experimental part: EZH2 assays were performed following BPS Biosciences instructions and as previously described.

Data set [3] deals with SIRT1 (Homo sapiens, UniProt Q96EB6). The data set can be described thus: SIRT1 in vitro assay. The class given is biochemical. As for the experimental part:
The HDAC1 and SIRT1 assays were performed as described previously.

Data set [4] in a line: Stability of MC2884 in cell culture medium (RP-HPLC). In kind it is physicochemical. As for the experimental part: The compound was dissolved in DMEM at 50 µM and its concentration was measured by RP-HPLC using a ONYX 50 × 2 mm ID C18 column operating at 600 µL/min. The gradient applied was from 1% solvent B to 70% solvent B in 10 minutes. Solvent A was water with added 0.1% trifluoroacetic acid (TFA) and solvent B was acetonitrile with added 0.1% TFA. The eluate was monitored using a diode array detector with wavelengths set between 200–320 nm. The compound was eluted at 11.1 min. Peak integration was carried out on the chromatogram extracted at […], which is one of the compound absorbance maxima. A calibration curve was built by injecting solutions of the compound in DMSO at concentrations ranging between 1.5 µM and 200 µM. After incubation in DMEM compound concentration was determined at time points ranging between 0 and 72 hrs. As shown, half of compound was degraded after 10 h. At 72 hrs it was fully degraded under these conditions.

The subject of data set [5] is endometrial stromal cells. The data set is described as follows: Cytotoxic effect on immortalized non-cancer endometrial stromal cells. In kind it is cell-based.

Sequence of SIRT1 (Q96EB6 whole entry): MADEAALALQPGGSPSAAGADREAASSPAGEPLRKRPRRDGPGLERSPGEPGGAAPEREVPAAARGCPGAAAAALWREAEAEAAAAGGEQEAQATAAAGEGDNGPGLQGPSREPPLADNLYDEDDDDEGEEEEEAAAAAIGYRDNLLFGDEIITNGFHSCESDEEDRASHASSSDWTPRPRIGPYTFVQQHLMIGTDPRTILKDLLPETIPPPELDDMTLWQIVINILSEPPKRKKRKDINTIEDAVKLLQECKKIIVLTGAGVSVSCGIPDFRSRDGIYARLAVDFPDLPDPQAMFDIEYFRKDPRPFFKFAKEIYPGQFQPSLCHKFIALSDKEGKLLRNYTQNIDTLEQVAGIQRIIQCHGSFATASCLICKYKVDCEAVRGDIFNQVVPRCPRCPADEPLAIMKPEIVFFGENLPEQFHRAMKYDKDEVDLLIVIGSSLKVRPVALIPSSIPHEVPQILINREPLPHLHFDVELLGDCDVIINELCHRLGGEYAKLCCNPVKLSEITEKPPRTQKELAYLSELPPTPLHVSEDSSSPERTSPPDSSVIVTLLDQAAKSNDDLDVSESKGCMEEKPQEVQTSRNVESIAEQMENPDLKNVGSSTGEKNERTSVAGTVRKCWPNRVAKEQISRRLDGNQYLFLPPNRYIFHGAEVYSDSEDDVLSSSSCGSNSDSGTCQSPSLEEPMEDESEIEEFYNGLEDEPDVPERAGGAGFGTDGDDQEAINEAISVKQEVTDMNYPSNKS

With `O=C1/C(=C/c2cccc(Br)c2)CN(Cc2ccccc2)C/C1=C\c1cccc(Br)c1` [MC2884], the IC50 in data set [1] was above 25 µM. The inhibition at 5 µM in data set [2] (5 μM) is around 40%. The compound also came in with an inhibition at 25 µM in data set [2] (25 μM) of around 80%. Moreover, in data set [3], the SirT modulating action result was “no activity”. The half-life at 50 µM in data set [4] (DMEM cell culture medium, read-out: half-life in cell culture media (converted)) is 10 h. In data set [4] (DMEM, 50 µM), the “time for total degradation in cell culture media” value turned out to be 72 h. The “cytotoxic effect on endometrial stromal cells” value in data set [5] is reported as “insensitive”.
